Experimental findings from patent publication US20260049068A1, “Substituted Tetrazolyl Compounds Useful as T Cell Activators” (BRISTOL-MYERS SQUIBB COMPANY, priority 2022, published 2026) are described below.

In one experiment the target is DGKα-YFP in Jurkat cells (Homo sapiens (Human), UniProt P23743). The experiment can be described thus: In vitro DGKα translocation assay. To be noted: 1 hour at 37° C., top concentration 10 μM, read-out: DGKalpha Translocation EC50. Format: cell-based. From the text: Jurkat cells were transduced with lentiviral constructs overexpressing DGKα-YFP (N-terminal tagged), selected by puromycin, and were FACs sorted to establish stable lines expressing each isoform (Jurkat-DGKα-YFP=BXA-212700-01-001, Jurkat-DGKz-YFP=BXA-212701-01-001). Cell lines were maintained in growth media (RPMI supplemented with 10% FBS and pen/strep). All translocation assays were run in assay media (RPMI supplemented with 10% FBS and no antibiotics).
Sequence of DGKα-YFP in Jurkat cells (P23743 whole entry, canonical isoform): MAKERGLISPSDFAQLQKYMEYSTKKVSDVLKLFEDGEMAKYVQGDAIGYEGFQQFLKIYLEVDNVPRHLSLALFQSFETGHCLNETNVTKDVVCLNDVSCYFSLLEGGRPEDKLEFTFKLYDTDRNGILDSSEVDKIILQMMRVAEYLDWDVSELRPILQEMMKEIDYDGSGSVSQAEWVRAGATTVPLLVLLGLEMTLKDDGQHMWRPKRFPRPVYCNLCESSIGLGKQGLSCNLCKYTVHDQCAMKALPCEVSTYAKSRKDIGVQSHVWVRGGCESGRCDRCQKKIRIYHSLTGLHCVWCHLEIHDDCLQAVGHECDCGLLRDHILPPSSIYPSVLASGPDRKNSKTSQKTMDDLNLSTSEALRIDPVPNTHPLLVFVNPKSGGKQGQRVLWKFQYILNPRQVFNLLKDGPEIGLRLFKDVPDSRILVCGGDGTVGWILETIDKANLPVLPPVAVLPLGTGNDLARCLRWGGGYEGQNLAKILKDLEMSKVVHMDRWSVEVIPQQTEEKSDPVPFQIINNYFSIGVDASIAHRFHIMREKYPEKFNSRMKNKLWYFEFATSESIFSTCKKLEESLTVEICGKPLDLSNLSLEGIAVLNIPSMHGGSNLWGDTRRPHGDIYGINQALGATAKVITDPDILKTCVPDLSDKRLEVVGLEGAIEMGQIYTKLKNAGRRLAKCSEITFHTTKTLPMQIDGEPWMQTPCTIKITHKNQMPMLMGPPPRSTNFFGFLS
For translocation assays cells were plated onto Perkin Elmer CellCarrier-384 Ultra Microplates (Perkin Elmer cat #6057500) at a density of 30,000 cells/well, in a volume of 40 μL of assay media. Compounds were then transferred to the cells by an Echo Acoustic Liquid Handler (Echo 655). […] Treated cells were then incubated at 37° C. for 1 hour. Cells were then fixed with 4% formaldehyde (Thermo cat #28906) for 15 minutes, centrifuged briefly to increase cell retention (250 rpm for 5 minutes), and then washed 3× with 50 μL PBS. Cells were then stained with Hoechst, and washed 2× with 50 ul PBS. Next, 50 μL PBS was added to each well, plates were sealed, and plates were imaged on an Opera Phenix High Content screening system. Imaging was done with the 40× water objective. The YFP channel was set at 100% power for […], 10 regions/well were imaged and analyzed. Data analysis was done with Columbus Image Analysis software (Perk-in Elmer).

Experiment [1] concerns the target Near full length human DGKα(S9-S727) (Homo sapiens (Human), UniProt P23743). The experiment can be described thus: DGKα (Near Full Length) ADP Glo assay. Conditions: extruded liposomes 5% or 10% DAG, 150 μM ATP, 5 nM enzyme; read-out: Near Full Length DGKalpha ADPGLO IC50. Format: biochemical. How it is done:
The reactions were carried out at 150 μM ATP.
Luminescence was recorded using an EnVision microplate reader.

The next experiment addresses Full length human DGKα (Homo sapiens (Human), UniProt P23743).

Sequence of Near full length human DGKα(S9-S727) (P23743 9-727): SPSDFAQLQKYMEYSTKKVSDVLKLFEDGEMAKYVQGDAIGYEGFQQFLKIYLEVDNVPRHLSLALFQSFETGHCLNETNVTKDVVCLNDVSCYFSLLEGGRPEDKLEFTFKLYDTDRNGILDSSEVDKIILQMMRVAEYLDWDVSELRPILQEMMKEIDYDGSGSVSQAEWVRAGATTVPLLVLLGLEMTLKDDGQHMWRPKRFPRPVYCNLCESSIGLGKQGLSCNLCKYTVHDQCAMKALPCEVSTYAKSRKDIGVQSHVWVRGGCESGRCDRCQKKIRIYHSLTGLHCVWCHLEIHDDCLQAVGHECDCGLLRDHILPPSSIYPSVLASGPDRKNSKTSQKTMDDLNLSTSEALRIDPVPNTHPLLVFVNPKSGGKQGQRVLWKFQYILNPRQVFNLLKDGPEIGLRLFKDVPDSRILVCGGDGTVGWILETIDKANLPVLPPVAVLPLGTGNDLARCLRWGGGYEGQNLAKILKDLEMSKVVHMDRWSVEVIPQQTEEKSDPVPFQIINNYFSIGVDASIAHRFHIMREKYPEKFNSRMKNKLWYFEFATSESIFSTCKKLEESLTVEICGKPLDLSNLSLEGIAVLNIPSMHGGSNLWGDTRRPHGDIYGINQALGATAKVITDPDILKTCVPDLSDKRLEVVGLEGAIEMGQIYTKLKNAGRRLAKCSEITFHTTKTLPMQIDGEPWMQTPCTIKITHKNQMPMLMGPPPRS
Sequence of Full length human DGKα (P23743 other isoform, or with tags, fused parts or gaps): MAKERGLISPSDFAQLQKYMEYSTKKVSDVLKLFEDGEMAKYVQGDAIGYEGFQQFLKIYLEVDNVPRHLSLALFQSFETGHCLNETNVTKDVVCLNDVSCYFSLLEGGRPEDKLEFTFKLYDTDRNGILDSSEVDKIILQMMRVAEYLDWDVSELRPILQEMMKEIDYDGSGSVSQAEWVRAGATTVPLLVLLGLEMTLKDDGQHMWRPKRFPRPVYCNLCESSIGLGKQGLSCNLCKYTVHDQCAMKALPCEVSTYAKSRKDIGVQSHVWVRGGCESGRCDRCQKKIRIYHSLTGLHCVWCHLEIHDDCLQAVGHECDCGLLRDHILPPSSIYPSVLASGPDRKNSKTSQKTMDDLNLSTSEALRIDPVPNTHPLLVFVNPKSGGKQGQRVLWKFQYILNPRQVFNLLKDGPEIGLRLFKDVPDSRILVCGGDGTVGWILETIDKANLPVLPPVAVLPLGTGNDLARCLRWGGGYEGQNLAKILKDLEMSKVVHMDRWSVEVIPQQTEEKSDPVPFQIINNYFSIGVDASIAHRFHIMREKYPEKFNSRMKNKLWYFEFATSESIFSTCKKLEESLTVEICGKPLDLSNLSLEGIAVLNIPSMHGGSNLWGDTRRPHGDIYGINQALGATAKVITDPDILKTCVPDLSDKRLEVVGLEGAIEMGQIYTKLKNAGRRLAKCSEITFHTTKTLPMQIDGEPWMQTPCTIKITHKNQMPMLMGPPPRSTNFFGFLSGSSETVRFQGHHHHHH

For the molecule `CC1CCC(N(C)Cc2nnnn2-c2cccc([N+](=O)[O-])c2)CC1` (stereo not drawn) [Example 2, N,4-dimethyl-N-((1-(3-nitrophenyl)-1H-tetrazol-5-yl)methyl)cyclohexan-1-amine], on DGKα-YFP in Jurkat cells, the EC50 stood at 0.3 µM.

Consider `CN(Cc1nnnn1-c1ccc(C(F)(F)F)c(C#N)c1)C1CCCCC1` [Example 4, 5-(5-((cyclohexyl(methyl)amino)methyl)-1H-tetrazol-1-yl)-2-(trifluoromethyl)benzonitrile], for which the figures for the IC50 (in experiment [1]; against Full length human DGKα) were 0.28 µM and 0.027 µM, respectively. In addition, the EC50 on DGKα-YFP in Jurkat cells was determined as 0.82 µM. For `CCCCN(Cc1nnnn1-c1ccc(Cl)c(C#N)c1)C1CCCCC1` [Example 5, 5-(5-((butyl(cyclohexyl)amino)methyl)-1H-tetrazol-1-yl)-2-chlorobenzonitrile], the IC50 in experiment [1] was determined as 1.4 µM; against Full length human DGKα, 1.1 µM. Moreover, the EC50 on DGKα-YFP in Jurkat cells is 1.2 µM. For `C=CCN(Cc1nnnn1-c1ccc(Cl)c(C#N)c1)C1CCCCC1` [Example 6, 5-(5-((allyl(cyclohexyl)amino)methyl)-1H-tetrazol-1-yl)-2-chlorobenzonitrile], the IC50 in experiment [1] was found to be 0.1 µM; on Full length human DGKα, 0.11 µM. Besides, the EC50 at DGKα-YFP in Jurkat cells stood at 0.19 µM. On to `N#Cc1cc(-n2nnnc2CN(CCO)C2CCCCC2)ccc1Cl` [Example 7, 2-chloro-5-(5-((cyclohexyl(2-hydroxyethyl)amino)methyl)-1H-tetrazol-1-yl)benzonitrile], for which the IC50 in experiment [1] is 3.4 µM; against Full length human DGKα, 4.7 µM. For the same molecule, the EC50 on DGKα-YFP in Jurkat cells is > 10 µM. As for `CCCN(Cc1nnnn1-c1ccc(Cl)c(C#N)c1)C1CCCCC1` [Example 8, 2-chloro-5-(5-((cyclohexyl(propyl)amino)methyl)-1H-tetrazol-1-yl)benzonitrile], the IC50 in experiment [1] turned out to be 2.1 µM; at Full length human DGKα it was 1.5 µM. In addition, the EC50 on DGKα-YFP in Jurkat cells turned out to be 0.35 µM. On to `CC(C)CN(C)Cc1nnnn1-c1ccc(Cl)c(C#N)c1` [Example 9, 2-chloro-5-(5-((isobutyl(methyl)amino)methyl)-1H-tetrazol-1-yl)benzonitrile], for which the values for the half-inhibitory concentration (IC50) (in experiment [1]; at Full length human DGKα) were 3.2 µM and 5.3 µM, respectively. Further, on DGKα-YFP in Jurkat cells, the EC50 came out at 1.2 µM.

Consider `N#Cc1cc(-n2nnnc2CN(CC2CC2)C2CCCCC2)ccc1Cl` [Example 10, 2-chloro-5-(5-((cyclohexyl(cyclopropylmethyl)amino)methyl)-1H-tetrazol-1-yl)benzonitrile], for which the IC50 in experiment [1] was found to be 0.24 µM; on Full length human DGKα, 0.25 µM. Further, the EC50 on DGKα-YFP in Jurkat cells was 0.63 µM. Regarding `C=CCN(Cc1nnnn1-c1ccc(Cl)c(C#N)n1)C1CCCCC1` [Example 17, 6-(5-((allyl (cyclohexyl)amino)methyl)-1H-tetrazol-1-yl)-3-chloropicolinonitrile], the EC50 on DGKα-YFP in Jurkat cells worked out at 0.47 µM. On the same count and under the same terms, next, `CN(Cc1nnnn1-c1cc(C#N)cc([N+](=O)[O-])c1)C1CCCCC1` [Example 27, 3-(5-((cyclohexyl(methyl)amino)methyl)-1H-tetrazol-1-yl)-5-nitrobenzonitrile]: 0.49 µM.

For the molecule `CN(Cc1nnnn1-c1ccc(Cl)cc1C#N)C1CCCCC1` [Example 30, 5-chloro-2-(5-((cyclohexyl(methyl)amino)methyl)-1H-tetrazol-1-yl)benzonitrile], at DGKα-YFP in Jurkat cells, the EC50 is > 10 µM. Take `COc1ccc(-n2nnnc2CN(C)C2CCCCC2)cc1` [Example 31, N-((1-(4-methoxyphenyl)-1H-tetrazol-5-yl)methyl)-N-methylcyclohexanamine]: the IC50 against Full length human DGKα came to 56 µM. In turn, `CN(Cc1nnnn1-c1ccc([N+](=O)[O-])cc1)C1CCCCC1` [Example 32, N-methyl-N-((1-(4-nitrophenyl)-1H-tetrazol-5-yl)methyl)cyclohexanamine] registered an IC50 against Full length human DGKα of 13 µM. For the molecule `COC(=O)c1cccc(-n2nnnc2CN(C)C2CCCCC2)c1` [Example 33, methyl 3-(5-((cyclohexyl(methyl)amino)methyl)-1H-tetrazol-1-yl)benzoate], the IC50 against Full length human DGKα was > 240 µM. As to `CN(Cc1nnnn1-c1cccc(C(=O)O)c1)C1CCCCC1` [Example 34, 3-(5-((cyclohexyl (methyl)amino)methyl)-1H-tetrazol-1-yl)benzoic acid], the concentration for half-maximal inhibition (IC50) against Full length human DGKα was > 81 µM.

As to `Cc1cccc(-n2nnnc2CN(C)C2CCCCC2)c1` [Example 35, N-methyl-N-((1-(m-tolyl)-1H-tetrazol-5-yl)methyl)cyclohexanamine], the IC50 at Full length human DGKα amounted to 50 µM. For `CN(Cc1nnnn1-c1cccc(Cl)c1)C1CCCCC1` [Example 36, N-((1-(3-chlorophenyl)-1H-tetrazol-5-yl)methyl)-N-methylcyclohexanamine], inhibition at Full length human DGKα was half-maximal at 11 µM (IC50). On Full length human DGKα, `O=[N+]([O-])c1cccc(-n2nnnc2CN(CCO)C2CCCCC2)c1` [Example 43, 2-(cyclohexyl((1-(3-nitrophenyl)-1H-tetrazol-5-yl)methyl)amino)ethan-1-ol] gave a 50% inhibitory concentration (IC50) of 72 µM. `CN(Cc1nnnn1-c1cccc(Br)c1)C1CCCCC1` [Example 45, N-((1-(3-bromophenyl)-1H-tetrazol-5-yl)methyl)-N-methylcyclohexanamine]: half-maximal inhibition on Full length human DGKα (IC50) required 12 µM. At Full length human DGKα, `CN(Cc1nnnn1-c1ccc(F)nc1)C1CCCCC1` [Example 46, N-((1-(6-fluoropyridin-3-yl)-1H-tetrazol-5-yl)methyl)-N-methylcyclohexanamine] displayed an IC50 of 16 µM.

Turning to `CN(Cc1nnnn1-c1cc(C#N)c(=O)n(C)c1)C1CCCCC1` [Example 48, 5-(5-((cyclohexyl(methyl)amino)methyl)-1H-tetrazol-1-yl)-1-methyl-2-oxo-1,2-dihydropyridine-3-carbonitrile], the half-inhibitory concentration (IC50) against Full length human DGKα came out at 56 µM. The same measure, in the same setting: the value for `CN(Cc1nnnn1-c1ccc(Cl)c(C(F)(F)F)c1)C1CCCCC1` [Example 49, N-((1-(4-chloro-3-(trifluoromethyl)phenyl)-1H-tetrazol-5-yl)methyl)-N-methylcyclohexanamine] was 17 µM. For `CC1CCC(C)N1Cc1nnnn1-c1ccc(Cl)c(C#N)c1` (stereo not drawn) [Example 50, 2-chloro-5-(5-((2,5-dimethylpyrrolidin-1-yl)methyl)-1H-tetrazol-1-yl)benzonitrile], on Full length human DGKα, inhibition was half-maximal at 54 µM (IC50). On Full length human DGKα, `CCOC(=O)C1CCC(N(Cc2nnnn2-c2ccc(Cl)c(C#N)c2)C2CC2)CC1` (stereo not drawn) [Example 51, ethyl 4-(((1-(4-chloro-3-cyanophenyl)-1H-tetrazol-5-yl)methyl)(cyclopropyl)amino) cyclohexane-1-carboxylate] displayed a concentration for half-maximal inhibition (IC50) of 13 µM. On Full length human DGKα, `N#Cc1cc(-n2nnnc2CN(CC(O)c2ccccc2)C2CCCCC2)ccc1Cl` (stereo not drawn) [Example 52, 2-chloro-5-(5-((cyclohexyl(2-hydroxy-2-phenylethyl)amino)methyl)-1H-tetrazol-1-yl)benzonitrile] gave an IC50 of 11 µM.

In turn, `CCCN(Cc1nnnn1-c1ccc(Cl)c(C#N)n1)C1CCCCC1` [Example 53, 3-chloro-6-(5-((cyclohexyl(propyl)amino)methyl)-1H-tetrazol-1-yl)picolinonitrile] showed a concentration for half-maximal inhibition (IC50) against Full length human DGKα of 15 µM. On the same count and under the same terms, next, `N#Cc1nc(-n2nnnc2CN(CCCNC(=O)c2ccccc2)C2CCCCC2)ccc1Cl` [Example 54, N-(3-(((1-(5-chloro-6-cyanopyridin-2-yl)-1H-tetrazol-5-yl)methyl)(cyclohexyl)amino)propyl)benzamide]: 70 µM; `CC(C)N(Cc1nnnn1-c1ccc(Cl)c(C#N)n1)C1CCCCC1` [Example 55, 3-chloro-6-(5-((cyclohexyl(isopropyl)amino)methyl)-1H-tetrazol-1-yl)picolinonitrile]: 46 µM. Still for that read-out and setting: next, `CCOC(=O)C1CCC(N(Cc2nnnn2-c2ccc(Cl)c(C#N)n2)C2CC2)CC1` (stereo not drawn) [Example 56, ethyl 4-(((1-(5-chloro-6-cyanopyridin-2-yl)-1H-tetrazol-5-yl)methyl)(cyclopropyl)amino) cyclohexane-1-carboxylate]: 11 µM; `C[C@]1(O)CC[C@@H](N(Cc2nnnn2-c2ccc(Cl)c(C#N)n2)C2CC2)CC1` [Example 59, 3-chloro-6-(5-((cyclopropyl((1s,4s)-4-hydroxy-4-methylcyclohexyl)amino)methyl)-1H-tetrazol-1-yl)picolinonitrile]: 180 µM; `CC(C)N(C)Cc1nnnn1-c1ccc(Cl)c(C#N)n1` [Example 60, 3-chloro-6-(5-((isopropyl(methyl)amino)methyl)-1H-tetrazol-1-yl)picolinonitrile]: 67 µM. Same read-out and setting: next, `CC(C)CN(C)Cc1nnnn1-c1ccc(Cl)c(C#N)n1` [Example 61, 3-chloro-6-(5-((isobutyl(methyl)amino)methyl)-1H-tetrazol-1-yl)picolinonitrile]: 24 µM. With `N#Cc1nc(-n2nnnc2CN(CCO)C2CCCCC2)ccc1Cl` [Example 62, 3-chloro-6-(5-((cyclohexyl(2-hydroxyethyl)amino)methyl)-1H-tetrazol-1-v) picolinonitrile], at Full length human DGKα, the concentration for half-maximal inhibition (IC50) is 110 µM. On Full length human DGKα, `CCCCN(Cc1nnnn1-c1ccc(Cl)c(C#N)n1)C1CCCCC1` [Example 63, 6-(5-((butyl(cyclohexyl)amino)methyl)-1H-tetrazol-1-yl)-3-chloropicolinonitrile] gave an IC50 of 15 µM.
